In patent US9924716B2, “Molecules having pesticidal utility, and intermediates, compositions, and processes, related thereto” (Dow AgroSciences LLC, priority 2016, dated 2018) one finds pest or weed control and YFM rating data, which are given here for 16 compounds.

Molecules are shown by their SMILES.

Assay type in all cases: in vivo
Assay [1] has as its system Beet Armyworm (Spodoptera exigua, LAPHEG) second instar larvae. Kind of assay: Bioassay on Beet Armyworm (BAW), 128-well diet tray assay. The following applies: Beet Armyworm, Table ABC Biological Results, read-out: BAW rating. The procedure: (§1) Certain molecules disclosed in this document were tested against BAW, CEW, and CL using procedures described in the following examples. In the reporting of the results, the “BAW, CEW, & CL Rating Table” was used (See Table Section).
Bioassays on BAW were conducted using a 128-well diet tray assay. one to five second instar BAW larvae were placed in each well (3 mL) of the diet tray that had been previously filled with 1 mL of artificial diet to which 50 μg/cm^2 of the test molecule (dissolved in 50 μL of 90:10 acetone-water mixture) had been applied (to each of eight wells) and then allowed to dry. Trays were covered with a clear self-adhesive cover and held at 25° C., 14:10 light-dark for five to seven days. Percent mortality was recorded for the larvae in each well; activity in the eight wells was then averaged. The results are indicated in the table entitled “Table ABC: Biological Results” (See Table Section).
(§2) Bioassays on BAW and CL were conducted according to the procedures outlined in Example A: Bioassays on Beet Armyworm (“BAW”) and Cabbage Looper (“CL”) using the indicated concentrations.

For assay [2], the system named is Yellow Fever Mosquito (Aedes aegypti, AEDSAE) larvae. Nature of the assay: Bioassay on Yellow Fever Mosquito (YFM), 96-well plate larval assay. The following applies: Table ABC Biological Results. On the procedure: Certain molecules disclosed in this document were tested against YFM using procedures described in the following paragraph. In the reporting of the results, the “GPA & YFM Rating Table” was used (See Table Section).
Master plates containing 400 μg of a molecule dissolved in 100 μL of dimethyl sulfoxide (DMSO) (equivalent to a 4000 ppm solution) are used. A master plate of assembled molecules contains 15 μL per well. To this plate, 135 μL of a 90:10 water:acetone mixture is added to each well. A robot (Biomek® NXP Laboratory Automation Workstation) is programmed to dispense 15 μL aspirations from the master plate into an empty 96-well shallow plate (“daughter” plate). There are 6 reps (“daughter” plates) created per master. The created daughter plates are then immediately infested with YFM larvae.
The day before plates are to be treated, mosquito eggs are placed in Millipore water containing liver powder to begin hatching (4 g. into 400 mL). After the daughter plates are created using the robot, they are infested with 220 μL of the liver powder/larval mosquito mixture (about 1 day-old larvae). After plates are infested with mosquito larvae, a non-evaporative lid is used to cover the plate to reduce drying. Plates are held at room temperature for 3 days prior to grading. After 3 days, each well is observed and scored based on mortality. The results are indicated in the table entitled “Table ABC: Biological Results” (See Table Section).

In assay [3] the test system is Cabbage Looper (Trichoplusia ni, TRIPNI) second instar larvae. Nature of the assay: Bioassay on Cabbage Looper (CL), 128-well diet tray assay. The following applies: Cabbage Looper, Table ABC Biological Results, read-out: CL rating. The procedure:
as §1
Bioassays on CL were conducted using a 128-well diet tray assay. one to five second instar CL larvae were placed in each well (3 mL) of the diet tray that had been previously filled with 1 mL of artificial diet to which 50 μg/cm^2 of the test molecule (dissolved in 50 μL of 90:10 acetone-water mixture) had been applied (to each of eight wells) and then allowed to dry. Trays were covered with a clear self-adhesive cover and held at 25° C., 14:10 light-dark for five to seven days. Percent mortality was recorded for the larvae in each well; activity in the eight wells was then averaged. The results are indicated in the table entitled “Table ABC: Biological Results” (See Table Section).
as §2

With `C[C@H](NC(=O)CCC(F)(F)F)NC(=O)c1ccc(/C(F)=C/C(c2cc(Cl)cc(Cl)c2)C(F)(F)F)cc1C(F)(F)F` (stereo partly drawn) [F12, 4-((Z)-3-(3,5-Dichlorophenyl)-1,4,4,4-tetrafluorobut-1-en-1-yl)-N—((R)-1-(4,4,4-trifluorobutanamido)ethyl)-2-(trifluoromethyl)benzamide], the pest or weed control at 50 µg/cm2 in assay [1] and in assay [3] was 50 to 100% in each case. Besides, the YFM rating result in assay [2] is on record as “A (80-100)”.
`Cc1cc(C(/C=C(\F)c2ccc(C(=O)N[C@H](C)NC(=O)CC(F)(F)F)c(C(F)(F)F)c2)C(F)(F)F)cc(Cl)c1Cl` (stereo partly drawn) [PF4, 4-((Z)-3-(3,4-Dichloro-5-methylphenyl)-1,4,4,4-tetrafluorobut-1-en-1-yl)-2-(trifluoromethyl)-N—((R)-1-(3,3,3-trifluoropropanamido)ethyl)benzamide]: the pest or weed control at 50 µg/cm2 in assay [1] and in assay [3] was 50 to 100% throughout. In addition, the YFM rating result in assay [2] is “B (More than 0-Less than 80)”.
On to `C[C@H](NC(=O)CCC(F)(F)F)NC(=O)c1ccc(/C(F)=C/C(c2cc(Cl)c(Br)c(Cl)c2)C(F)(F)F)cc1C(F)(F)F` (stereo partly drawn) [F15, 4-((Z)-3-(4-Bromo-3,5-dichlorophenyl)-1,4,4,4-tetrafluorobut-1-en-1-yl)-N—((R)-1-(4,4,4-trifluorobutanamido)ethyl)-2-(trifluoromethyl)benzamide], for which the pest or weed control at 50 µg/cm2 in assay [1] and in assay [3] was 50 to 100% throughout. In addition, the YFM rating result in assay [2] is recorded as “A (80-100)”.
As for `C[C@H](NC(=O)CC(F)(F)F)NC(=O)c1ccc(/C(F)=C/C(c2cc(Br)c(Cl)c(Br)c2)C(F)(F)F)cc1C(F)(F)F` (stereo partly drawn) [F26, 4-((Z)-3-(3,5-Dibromo-4-chlorophenyl)-1,4,4,4-tetrafluorobut-1-en-1-yl)-2-(trifluoromethyl)-N—((R)-1-(3,3,3-trifluoropropanamido)ethyl)benzamide], the pest or weed control at 50 µg/cm2 in assay [1] and in assay [3] was 50 to 100% each time. In assay [2], the YFM rating result is recorded as “A (80-100)”.
In the case of `C[C@H](NC(=O)CC(F)(F)F)NC(=O)c1ccc(/C(F)=C/C(c2ccc(Cl)c(F)c2)C(F)(F)F)cc1C(F)(F)F` (stereo partly drawn) [PF2, 4-((Z)-3-(4-Chloro-3-fluorophenyl)-1,4,4,4-tetrafluorobut-1-en-1-yl)-2-(trifluoromethyl)-N—((R)-1-(3,3,3-trifluoropropanamido)ethyl)benzamide], the pest or weed control at 50 µg/cm2 in assay [1] and in assay [3] was 50 to 100% throughout. In addition, the YFM rating entry in assay [2] is reported as “A (80-100)”.
`C[C@H](NC(=O)CC(F)(F)F)NC(=O)c1ccc(/C(F)=C/C(c2cc(Cl)c(Cl)c(Cl)c2)C(F)(F)F)c2ccccc12` (stereo partly drawn) [PF1, 4-((Z)-1,4,4,4-Tetrafluoro-3-(3,4,5-trichlorophenyl)but-1-en-1-yl)-N—((R)-1-(3,3,3-trifluoropropanamido)ethyl)-1-naphthamide]: the pest or weed control at 50 µg/cm2 in assay [1] and in assay [3] was 50 to 100% throughout. The YFM rating entry in assay [2] was “B (More than 0-Less than 80)”.
In the case of `C[C@H](NC(=O)CC(F)(F)F)NC(=O)c1ccc(/C(F)=C/C(c2cc(Br)cc(Br)c2)C(F)(F)F)cc1C(F)(F)F` (stereo partly drawn) [F22, 4-((Z)-3-(3,5-Dibromophenyl)-1,4,4,4-tetrafluorobut-1-en-1-yl)-2-(trifluoromethyl)-N—((R)-1-(3,3,3-trifluoropropanamido)ethyl)benzamide], the pest or weed control at 50 µg/cm2 in assay [1] and in assay [3] was 50 to 100% each time. Moreover, the YFM rating result in assay [2] was “A (80-100)”.
In the case of `Cc1cc(C(/C=C(\F)c2ccc(C(=O)N[C@H](C)NC(=O)CCC(F)(F)F)c(C(F)(F)F)c2)C(F)(F)F)cc(C)c1Cl` (stereo partly drawn) [F25, 4-((Z)-3-(4-Chloro-3,5-dimethylphenyl)-1,4,4,4-tetrafluorobut-1-en-1-yl)-N—((R)-1-(4,4,4-trifluorobutanamido)ethyl)-2-(trifluoromethyl)benzamide], the pest or weed control at 50 µg/cm2 in assay [1] and in assay [3] was 50 to 100% throughout. Besides, the YFM rating entry in assay [2] is “A (80-100)”.
For the compound `C[C@H](NC(=O)CCC(F)(F)F)NC(=O)c1ccc(/C(F)=C/C(c2cc(Br)cc(Br)c2)C(F)(F)F)cc1C(F)(F)F` (stereo partly drawn) [F23, 4-((Z)-3-(3,5-Dibromophenyl)-1,4,4,4-tetrafluorobut-1-en-1-yl)-N—((R)-1-(4,4,4-trifluorobutanamido)ethyl)-2-(trifluoromethyl)benzamide], the pest or weed control at 50 µg/cm2 in assay [1] and in assay [3] was 50 to 100% throughout. In addition, the YFM rating result in assay [2] is listed as “A (80-100)”.
With `C[C@H](NC(=O)CC(F)(F)F)NC(=O)c1ccc(/C(F)=C/C(c2cc(Cl)cc(Br)c2)C(F)(F)F)cc1C(F)(F)F` (stereo partly drawn) [F36, 4-((Z)-3-(3-Bromo-5-chlorophenyl)-1,4,4,4-tetrafluorobut-1-en-1-yl)-2-(trifluoromethyl)-N—((R)-1-(3,3,3-trifluoropropanamido)ethyl)benzamide], the pest or weed control at 50 µg/cm2 in assay [1] and in assay [3] was 50 to 100% each time. The YFM rating result in assay [2] was “A (80-100)”.
As to `C[C@H](NC(=O)CCC(F)(F)F)NC(=O)c1ccc(/C(F)=C/C(c2cc(Br)c(Cl)c(Br)c2)C(F)(F)F)cc1C(F)(F)F` (stereo partly drawn) [F30, 4-((Z)-3-(3,5-Dibromo-4-chlorophenyl)-1,4,4,4-tetrafluorobut-1-en-1-yl)-N—((R)-1-(4,4,4-trifluorobutanamido)ethyl)-2-(trifluoromethyl)benzamide], the pest or weed control at 50 µg/cm2 in assay [1] and in assay [3] was 50 to 100% each time. Also, in assay [2], the YFM rating result is “A (80-100)”.
As to `C[C@H](NC(=O)CC(F)(F)F)NC(=O)c1ccc(/C(F)=C/C(c2ccc(Br)c(Br)c2)C(F)(F)F)cc1C(F)(F)F` (stereo partly drawn) [F32, 4-((Z)-3-(3,4-Dibromophenyl)-1,4,4,4-tetrafluorobut-1-en-1-yl)-2-(trifluoromethyl)-N—((R)-1-(3,3,3-trifluoropropanamido)ethyl)benzamide], the pest or weed control at 50 µg/cm2 in assay [1] and in assay [3] was 50 to 100% in each case. Besides, in assay [2], the YFM rating entry is given as “A (80-100)”.
As to `C[C@H](NC(=O)CC(F)(F)F)NC(=O)c1ccc(/C(F)=C/C(c2cc(Cl)cc(Cl)c2)C(F)(F)F)cc1C(F)(F)F` (stereo partly drawn) [F11, 4-((Z)-3-(3,5-dichlorophenyl)-1,4,4,4-tetrafluorobut-1-en-1-yl)-2-(trifluoromethyl)-N—((R)-1-(3,3,3-trifluoropropanamido)ethyl)benzamide], the pest or weed control at 50 µg/cm2 in assay [1] and in assay [3] was 50 to 100% each time. The YFM rating result in assay [2] is on record as “A (80-100)”.
For the compound `C[C@H](NC(=O)CCC#N)NC(=O)c1ccc(/C(F)=C/C(c2cc(Cl)c(Cl)c(Cl)c2)C(F)(F)F)cc1C(F)(F)F` (stereo partly drawn) [F41, N—((R)-1-(3-Cyanopropanamido)ethyl)-4-((Z)-1,4,4,4-tetrafluoro-3-(3,4,5-trichlorophenyl)but-1-en-1-yl)-2-(trifluoromethyl)benzamide], the pest or weed control at 50 µg/cm2 in assay [1] and in assay [3] was 50 to 100% each time. The YFM rating result in assay [2] is reported as “A (80-100)”.
For the compound `Cc1cc(C(/C=C(\F)c2ccc(C(=O)N[C@H](C)NC(=O)CC(F)(F)F)c(C(F)(F)F)c2)C(F)(F)F)cc(C)c1Cl` (stereo partly drawn) [F24, 4-((Z)-3-(4-Chloro-3,5-dimethylphenyl)-1,4,4,4-tetrafluorobut-1-en-1-yl)-2-(trifluoromethyl)-N—((R)-1-(3,3,3-trifluoropropanamido)ethyl)benzamide], the pest or weed control at 50 µg/cm2 in assay [1] and in assay [3] was 50 to 100% each time. For the same compound, the YFM rating entry in assay [2] was “A (80-100)”.
For the compound `C[C@H](NC(=O)CCC(F)(F)F)NC(=O)c1ccc(/C(F)=C/C(c2ccc(Cl)c(Cl)c2)C(F)(F)F)cc1C(F)(F)F` (stereo partly drawn) [F14, 4-((Z)-3-(3,4-Dichlorophenyl)-1,4,4,4-tetrafluorobut-1-en-1-yl)-N—((R)-1-(4,4,4-trifluorobutanamido)ethyl)-2-(trifluoromethyl)benzamide], the pest or weed control at 50 µg/cm2 in assay [1] and in assay [3] was 50 to 100% throughout. Besides, the YFM rating entry in assay [2] is “A (80-100)”.
